# “And” between values parts separate entries of the source, which are not always exact repeats. Identical values can stand only once.
# Tested on: 5-α-reductase
# Assay: in vivo inhibiting activity of 5-α-reductase: plasmatic DHT concentration after oral administration
# Design: species or system Sprague-Dawley rats
# Description: Determination in vivo of the inhibiting activity of 5-α-reductase of an extract of Boehmeria nippononivea.
# For the in-vivo study of the inhibition of 5-α-reductase, Sprague-Dawley (Charles River Italia) male adult rats were used having a body weight of 200-250 g.
# The animals were stalled under standard conditions: at a temperature of 22/23° C., with 65% relative humidity, by exposing them to light cycles of 12 h light/12 h darkness.
# A standard diet in pellets (standard diet, Charles River) was administered to the rats, together with water ad libitum.
# Samples were taken from the rear-orbital plexus, immediately before the pharmacological treatment (T0) and then at 3, 6 and 8 hours after administration.
# The administration of the substance being tested was effected orally.
# Furthermore, contemporarily with each sampling of the treated animals, samples were also taken from non-treated animals to determine the basal analyte level.
# Plasma obtained from the whole blood, treated with EDTA after centrifugation, was preserved at −20° C. until analysis.
# The plasmatic concentrations of DHT (dihydrotestosterone) were determined by a commercial kit (DSL, Chematil, Angri, SA) after extraction of the samples.
# All the samples of an experimental set were analyzed together to reduce the inter analytical variability.
smiles,measurement,setting,value
CC(C)(C)NC(=O)[C@H]1CC[C@H]2[C@@H]3CC[C@H]4NC(=O)C=C[C@]4(C)[C@H]3CC[C@]12C [Finasteride],"plasmatic DHT concentration, individual animals","Finasteride 1 mg oral, 3 hrs",298.09 and 505.28 and 300.00 and 569.62 and 404.63 and 530.00
same,"plasmatic DHT concentration, average","Finasteride 1 mg oral, 3 hrs, n = 6",434.603
same,"plasmatic DHT concentration, individual animals","Finasteride 1 mg oral, 6 hrs",404.13 and 565.00 and 379.59 and 592.06 and 148.51 and 420.07
same,"plasmatic DHT concentration, average","Finasteride 1 mg oral, 6 hrs, n = 6",418.227
same,"plasmatic DHT concentration, individual animals","Finasteride 1 mg oral, 8 hrs",706.70 and 140.06 and 503.90 and 530.07 and 173.11 and 110.00
same,"plasmatic DHT concentration, average","Finasteride 1 mg oral, 8 hrs, n = 6",360.640
same,"plasmatic DHT concentration, individual animals","Finasteride 5 mg oral, 3 hrs",217.10 and 618.58 and 151.18 and 640.97 and 924.20 and 569.38
same,"plasmatic DHT concentration, average","Finasteride 5 mg oral, 3 hrs, n = 6",520.235
same,"plasmatic DHT concentration, individual animals","Finasteride 5 mg oral, 6 hrs",205.21 and 103.62 and 54.35 and 60.67 and 49.67 and 128.25 and 176.92 and 81.23
same,"plasmatic DHT concentration, average","Finasteride 5 mg oral, 6 hrs, n = 8",107.490
same,"plasmatic DHT concentration, individual animals","Finasteride 5 mg oral, 8 hrs",201.56 and 108.76 and 745.40 and 576.60 and 250.90 and 300.12
same,"plasmatic DHT concentration, average","Finasteride 5 mg oral, 8 hrs, n = 6",363.890
same,trend of the DHT concentration following administration,"oral, 3, 6 and 8 hours after administration","8 hours after treatment, increases returning to the basal levels"

# Reference: patent US20070207228A1, “Composition for Regulating the Trophism of Hair Follicles and the Cutaneous Production of Sebum and Use Thereof in Androgenic Alopecia” (priority 2004, published 2007)
